From ChEMBL document CHEMBL5137065, “Recent Advances with KDM4 Inhibitors and Potential Applications” (J Med Chem, 2022)
Positions of bridges follow the written chain, without caps; N, C: chain ends. Non-standard residues stand in square brackets, D forms with d. Residues, ends and D or L forms follow the SMILES beside them.

Key:
[1] = target: Lysine-specific demethylase 5A (Homo sapiens, UniProt P29375); assay: Inhibition of KDM5A (unknown origin) measured by AlphaScreen assay
[2] = target: T1, Lysine-specific demethylase 4C (Homo sapiens, UniProt Q9H3R0); assay: Inhibition of KDM4C (unknown origin) measured by AlphaScreen assay
T1 sequence (Q9H3R0 whole entry): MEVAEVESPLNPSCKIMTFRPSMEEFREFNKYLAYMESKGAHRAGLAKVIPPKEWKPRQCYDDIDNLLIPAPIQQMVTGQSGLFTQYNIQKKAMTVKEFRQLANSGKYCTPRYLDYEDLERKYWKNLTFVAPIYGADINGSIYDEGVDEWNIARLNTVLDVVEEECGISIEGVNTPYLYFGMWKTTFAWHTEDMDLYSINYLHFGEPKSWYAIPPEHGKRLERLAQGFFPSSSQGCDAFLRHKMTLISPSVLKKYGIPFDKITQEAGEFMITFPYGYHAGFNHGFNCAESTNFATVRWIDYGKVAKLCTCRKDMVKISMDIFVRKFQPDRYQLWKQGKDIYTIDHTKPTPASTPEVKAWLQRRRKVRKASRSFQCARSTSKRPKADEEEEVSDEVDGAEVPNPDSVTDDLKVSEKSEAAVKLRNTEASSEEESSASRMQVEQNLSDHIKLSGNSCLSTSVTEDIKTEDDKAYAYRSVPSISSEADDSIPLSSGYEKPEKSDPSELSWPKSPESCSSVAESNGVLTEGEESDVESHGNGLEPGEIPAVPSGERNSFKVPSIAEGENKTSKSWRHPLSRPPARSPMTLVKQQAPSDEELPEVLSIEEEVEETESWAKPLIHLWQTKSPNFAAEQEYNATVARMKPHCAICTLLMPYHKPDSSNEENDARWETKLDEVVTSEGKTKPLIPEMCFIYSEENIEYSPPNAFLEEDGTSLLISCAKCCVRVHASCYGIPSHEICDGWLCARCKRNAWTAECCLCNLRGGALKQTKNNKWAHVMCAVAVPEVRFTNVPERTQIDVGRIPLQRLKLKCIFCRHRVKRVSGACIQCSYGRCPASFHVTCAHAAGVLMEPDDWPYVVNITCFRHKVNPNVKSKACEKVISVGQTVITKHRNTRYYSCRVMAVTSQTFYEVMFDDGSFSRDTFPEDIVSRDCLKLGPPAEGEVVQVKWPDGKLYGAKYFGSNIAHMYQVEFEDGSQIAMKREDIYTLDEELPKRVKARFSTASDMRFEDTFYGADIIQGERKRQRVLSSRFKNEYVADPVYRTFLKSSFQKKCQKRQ

[3] = target: Lysine-specific demethylase 6B (Homo sapiens, UniProt O15054); assay: Inhibition of KDM6B (unknown origin) measured by AlphaScreen assay
[4] = target: T2, Lysine-specific demethylase 4B (Homo sapiens, UniProt O94953); assay: Inhibition of KDM4B (unknown origin) measured by AlphaScreen assay
T2 sequence (O94953 whole entry): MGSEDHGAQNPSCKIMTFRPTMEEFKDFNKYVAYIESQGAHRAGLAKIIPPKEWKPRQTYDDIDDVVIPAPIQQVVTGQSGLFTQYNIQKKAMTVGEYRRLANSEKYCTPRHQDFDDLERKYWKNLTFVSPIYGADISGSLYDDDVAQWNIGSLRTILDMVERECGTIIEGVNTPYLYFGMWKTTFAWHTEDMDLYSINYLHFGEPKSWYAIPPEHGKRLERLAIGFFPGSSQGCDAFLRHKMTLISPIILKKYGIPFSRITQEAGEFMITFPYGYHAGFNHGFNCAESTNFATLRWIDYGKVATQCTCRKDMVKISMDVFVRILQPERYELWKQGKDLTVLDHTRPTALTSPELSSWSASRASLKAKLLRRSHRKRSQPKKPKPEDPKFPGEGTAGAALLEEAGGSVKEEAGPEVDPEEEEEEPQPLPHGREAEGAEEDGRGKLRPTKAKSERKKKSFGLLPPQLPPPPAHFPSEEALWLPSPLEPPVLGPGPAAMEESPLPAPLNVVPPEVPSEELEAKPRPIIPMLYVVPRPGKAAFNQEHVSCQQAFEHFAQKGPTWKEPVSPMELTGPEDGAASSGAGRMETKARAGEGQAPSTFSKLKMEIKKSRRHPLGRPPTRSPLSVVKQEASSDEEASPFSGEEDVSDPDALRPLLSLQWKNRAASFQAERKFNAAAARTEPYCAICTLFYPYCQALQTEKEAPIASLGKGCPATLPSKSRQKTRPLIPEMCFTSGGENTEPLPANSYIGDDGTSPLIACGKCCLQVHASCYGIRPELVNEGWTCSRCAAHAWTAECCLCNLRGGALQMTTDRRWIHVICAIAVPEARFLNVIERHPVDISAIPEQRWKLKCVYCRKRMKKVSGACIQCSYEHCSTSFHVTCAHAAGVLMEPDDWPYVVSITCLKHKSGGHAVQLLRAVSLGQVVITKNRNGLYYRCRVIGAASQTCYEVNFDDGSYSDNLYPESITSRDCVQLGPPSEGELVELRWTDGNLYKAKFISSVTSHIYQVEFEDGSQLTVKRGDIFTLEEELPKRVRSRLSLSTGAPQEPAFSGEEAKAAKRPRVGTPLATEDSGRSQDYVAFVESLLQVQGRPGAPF

[5] = target: T3, Lysine-specific demethylase 4A (Homo sapiens, UniProt O75164); assay: Inhibition of KDM4A (unknown origin) measured by LANCEUltra assay
T3 sequence (O75164 whole entry): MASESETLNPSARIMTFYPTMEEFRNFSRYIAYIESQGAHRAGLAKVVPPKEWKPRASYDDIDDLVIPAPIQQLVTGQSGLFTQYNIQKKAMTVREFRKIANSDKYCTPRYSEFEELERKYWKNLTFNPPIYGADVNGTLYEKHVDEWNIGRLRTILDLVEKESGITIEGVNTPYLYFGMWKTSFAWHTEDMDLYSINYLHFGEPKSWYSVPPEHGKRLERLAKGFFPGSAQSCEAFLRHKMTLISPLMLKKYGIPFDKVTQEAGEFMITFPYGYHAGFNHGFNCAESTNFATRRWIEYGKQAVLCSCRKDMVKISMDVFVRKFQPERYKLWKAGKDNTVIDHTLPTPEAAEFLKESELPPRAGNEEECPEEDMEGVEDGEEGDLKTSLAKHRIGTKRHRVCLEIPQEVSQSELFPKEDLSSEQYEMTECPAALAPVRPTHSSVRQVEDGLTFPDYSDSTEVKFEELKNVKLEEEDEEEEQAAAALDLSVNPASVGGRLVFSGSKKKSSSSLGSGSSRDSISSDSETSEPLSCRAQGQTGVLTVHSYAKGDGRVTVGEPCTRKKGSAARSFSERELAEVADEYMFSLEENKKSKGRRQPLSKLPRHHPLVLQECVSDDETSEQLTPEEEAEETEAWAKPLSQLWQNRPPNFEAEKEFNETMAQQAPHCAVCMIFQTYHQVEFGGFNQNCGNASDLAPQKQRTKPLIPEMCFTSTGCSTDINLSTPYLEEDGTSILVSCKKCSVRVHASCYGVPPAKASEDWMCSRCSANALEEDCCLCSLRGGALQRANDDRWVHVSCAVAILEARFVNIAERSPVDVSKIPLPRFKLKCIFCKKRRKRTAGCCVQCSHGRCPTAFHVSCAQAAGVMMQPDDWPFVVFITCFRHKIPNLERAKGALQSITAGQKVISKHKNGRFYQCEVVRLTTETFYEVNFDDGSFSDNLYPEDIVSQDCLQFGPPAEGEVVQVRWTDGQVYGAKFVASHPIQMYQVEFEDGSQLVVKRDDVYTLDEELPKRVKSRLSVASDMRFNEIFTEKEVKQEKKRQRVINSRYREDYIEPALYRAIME

[6] = target: T3, Lysine-specific demethylase 4A; assay: Inhibition of KDM4A (unknown origin) measured by formaldehyde dehydrogenase (FDH)-coupled fluorescence assay
[7] = target: T3, Lysine-specific demethylase 4A; assay: Inhibition of KDM4A in human KYSE-150 cells assessed as increase in H3K9me3 level; assay type: cell-based, KYSE-150 cell line
HL-60 = assay: Antiproliferative activity against human HL-60 cells; assay type: functional
KYSE-150 cell line = assay: Antiproliferative activity against human KYSE-150 cells; assay type: functional
[8] = target: T3, Lysine-specific demethylase 4A; assay: Inhibition of KDM4A (unknown origin) measured by AlphaScreen assay

Lysine-specific demethylase 5A, sequence (P29375 whole entry): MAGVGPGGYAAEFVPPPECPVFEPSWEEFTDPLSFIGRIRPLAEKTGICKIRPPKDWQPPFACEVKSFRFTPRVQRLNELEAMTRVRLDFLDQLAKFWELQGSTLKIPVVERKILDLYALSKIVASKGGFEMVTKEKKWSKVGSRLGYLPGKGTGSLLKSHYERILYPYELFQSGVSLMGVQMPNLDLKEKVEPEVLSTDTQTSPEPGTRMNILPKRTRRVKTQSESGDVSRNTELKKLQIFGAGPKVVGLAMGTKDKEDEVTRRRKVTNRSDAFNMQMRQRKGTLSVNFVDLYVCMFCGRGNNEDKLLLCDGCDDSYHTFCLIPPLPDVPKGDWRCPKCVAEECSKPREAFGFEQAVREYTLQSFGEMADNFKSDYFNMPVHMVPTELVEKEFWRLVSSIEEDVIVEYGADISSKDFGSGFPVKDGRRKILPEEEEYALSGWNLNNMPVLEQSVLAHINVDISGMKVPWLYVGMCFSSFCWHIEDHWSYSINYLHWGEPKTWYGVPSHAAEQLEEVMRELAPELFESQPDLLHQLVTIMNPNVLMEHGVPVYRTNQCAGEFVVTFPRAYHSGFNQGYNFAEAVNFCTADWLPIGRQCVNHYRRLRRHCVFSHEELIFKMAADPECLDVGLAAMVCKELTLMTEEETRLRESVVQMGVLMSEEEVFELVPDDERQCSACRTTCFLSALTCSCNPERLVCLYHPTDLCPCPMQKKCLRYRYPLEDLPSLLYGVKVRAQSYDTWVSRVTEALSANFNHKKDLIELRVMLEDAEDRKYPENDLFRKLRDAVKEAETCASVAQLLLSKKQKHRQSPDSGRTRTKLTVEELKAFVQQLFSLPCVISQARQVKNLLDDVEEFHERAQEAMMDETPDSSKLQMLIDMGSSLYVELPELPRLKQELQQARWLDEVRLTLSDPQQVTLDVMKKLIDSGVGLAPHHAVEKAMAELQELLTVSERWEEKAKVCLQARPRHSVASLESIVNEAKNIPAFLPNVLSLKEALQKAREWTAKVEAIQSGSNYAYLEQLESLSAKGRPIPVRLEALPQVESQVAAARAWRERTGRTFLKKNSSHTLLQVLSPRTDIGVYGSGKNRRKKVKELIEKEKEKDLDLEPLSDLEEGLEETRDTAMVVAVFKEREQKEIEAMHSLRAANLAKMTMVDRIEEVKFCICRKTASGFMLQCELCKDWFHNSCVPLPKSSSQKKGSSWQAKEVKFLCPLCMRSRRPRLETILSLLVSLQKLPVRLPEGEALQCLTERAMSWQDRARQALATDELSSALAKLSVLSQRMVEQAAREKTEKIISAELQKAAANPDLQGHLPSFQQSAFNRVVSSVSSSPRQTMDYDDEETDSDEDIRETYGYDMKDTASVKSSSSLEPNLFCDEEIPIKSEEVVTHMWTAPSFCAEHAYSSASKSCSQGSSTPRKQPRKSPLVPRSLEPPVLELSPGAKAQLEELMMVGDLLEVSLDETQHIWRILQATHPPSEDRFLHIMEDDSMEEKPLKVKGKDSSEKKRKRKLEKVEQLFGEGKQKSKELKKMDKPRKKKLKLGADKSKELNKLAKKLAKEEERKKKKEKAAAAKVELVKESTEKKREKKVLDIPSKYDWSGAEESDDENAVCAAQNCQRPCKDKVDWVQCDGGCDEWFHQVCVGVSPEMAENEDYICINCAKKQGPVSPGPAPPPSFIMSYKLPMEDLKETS
Lysine-specific demethylase 6B, sequence (O15054 whole entry): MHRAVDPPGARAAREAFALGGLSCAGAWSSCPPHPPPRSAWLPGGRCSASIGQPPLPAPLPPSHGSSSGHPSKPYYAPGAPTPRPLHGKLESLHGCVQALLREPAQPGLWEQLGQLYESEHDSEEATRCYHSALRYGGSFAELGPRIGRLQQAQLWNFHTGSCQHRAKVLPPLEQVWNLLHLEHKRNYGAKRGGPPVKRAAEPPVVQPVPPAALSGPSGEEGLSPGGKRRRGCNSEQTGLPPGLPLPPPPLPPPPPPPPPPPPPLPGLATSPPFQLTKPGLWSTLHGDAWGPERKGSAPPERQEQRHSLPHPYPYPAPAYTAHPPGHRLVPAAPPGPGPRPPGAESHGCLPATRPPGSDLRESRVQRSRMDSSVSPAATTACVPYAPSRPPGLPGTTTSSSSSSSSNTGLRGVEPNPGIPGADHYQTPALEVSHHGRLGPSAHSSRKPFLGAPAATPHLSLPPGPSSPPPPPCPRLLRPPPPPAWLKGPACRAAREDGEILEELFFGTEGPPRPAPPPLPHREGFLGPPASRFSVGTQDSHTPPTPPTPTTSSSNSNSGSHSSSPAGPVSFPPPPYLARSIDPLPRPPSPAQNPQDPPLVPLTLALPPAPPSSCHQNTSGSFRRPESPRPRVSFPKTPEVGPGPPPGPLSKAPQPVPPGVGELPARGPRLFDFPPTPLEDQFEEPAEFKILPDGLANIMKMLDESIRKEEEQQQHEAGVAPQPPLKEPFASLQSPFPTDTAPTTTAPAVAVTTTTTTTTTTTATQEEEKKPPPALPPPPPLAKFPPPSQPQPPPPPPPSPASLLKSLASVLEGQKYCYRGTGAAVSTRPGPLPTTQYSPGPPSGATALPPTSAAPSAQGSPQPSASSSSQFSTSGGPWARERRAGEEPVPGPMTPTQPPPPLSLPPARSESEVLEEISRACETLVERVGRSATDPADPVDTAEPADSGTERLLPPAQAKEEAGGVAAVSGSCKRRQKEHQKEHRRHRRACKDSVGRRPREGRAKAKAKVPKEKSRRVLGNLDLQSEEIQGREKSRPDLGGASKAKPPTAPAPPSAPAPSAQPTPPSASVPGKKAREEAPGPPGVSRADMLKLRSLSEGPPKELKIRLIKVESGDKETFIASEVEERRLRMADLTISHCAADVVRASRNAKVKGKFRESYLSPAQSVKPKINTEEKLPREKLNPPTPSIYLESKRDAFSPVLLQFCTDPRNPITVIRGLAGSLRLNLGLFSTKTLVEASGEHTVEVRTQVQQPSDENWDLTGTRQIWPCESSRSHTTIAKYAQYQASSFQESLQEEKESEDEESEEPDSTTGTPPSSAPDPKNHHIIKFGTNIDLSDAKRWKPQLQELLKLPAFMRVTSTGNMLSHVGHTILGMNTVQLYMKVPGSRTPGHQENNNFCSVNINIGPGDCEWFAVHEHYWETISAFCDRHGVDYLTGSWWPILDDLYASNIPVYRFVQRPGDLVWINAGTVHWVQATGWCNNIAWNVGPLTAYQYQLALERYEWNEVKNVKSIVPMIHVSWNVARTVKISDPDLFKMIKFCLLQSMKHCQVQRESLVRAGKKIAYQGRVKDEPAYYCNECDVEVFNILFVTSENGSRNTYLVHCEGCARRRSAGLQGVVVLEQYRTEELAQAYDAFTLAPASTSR

Row | SMILES | IC50 [1] | IC50 [2] | IC50 [3] | IC50 [5] | IC50 [6] | EC50 [7] | GI50 (HL-60) | GI50 (KYSE-150 cell line) | also measured
1 | CC(=O)N(O)CCCCCNC(=O)CCC(=O)N(O)CCCCCNC(=O)CCC(=O)N(O)CCCCCN [DEFEROXAMINE] |  |  |  | 3330 nM | 3220 nM |  |  |  | 
2 | O=C(O)c1ccc(-n2nc(-c3ccccc3O)nc2-c2ccccc2O)cc1 [DEFERASIROX] |  |  |  | 3330 nM | 3220 nM | 40500 nM | 5500 nM | 3300 nM | 
3 | CC[C@H](C)[C@@H]1NC(=O)CNC(=O)[C@H](CO)NC(=O)[C@H](CCCNC(=N)N)NC(=O)[C@H](CCCNC(=N)N)NC(=O)[C@H](Cc2ccccc2)NC(=O)[C@H](CCCNC(=N)N)NC(=O)[C@H]([C@@H](C)O)NC(=O)[C@@H](Cc2ccc(O)cc2)NC(=O)CSC[C@@H](C(N)=O)NC(=O)[C@H](Cc2ccc(O)cc2)NC(=O)[C@H](Cc2ccc(O)cc2)NC(=O)[C@H](Cc2ccccc2)NC(=O)[C@H](C(C)C)NC1=O ({CH2CO}-[dY]TRFRRSGIVFYYC-NH2; thioether N-14) |  | 2.2 nM |  |  |  |  |  |  | IC50 [8]: 6 nM
4 | COC(=O)c1ccc(-n2nc(-c3ccccc3O)nc2-c2ccccc2O)cc1 |  |  |  |  |  | 10000 nM | 1700 nM | 450 nM | 

Further lines, with some results ahead:

Row | IC50 [1] | IC50 [2] | IC50 [3] | IC50 [5] | IC50 [6] | EC50 [7] | GI50 (HL-60) | SMILES | GI50 (KYSE-150 cell line) | also measured
5 | 130 nM | 700 nM | 400 nM |  |  |  |  | COC1=C2C[C@@H](C)C[C@H](OC)[C@H](O)[C@@H](C)/C=C(\C)[C@H](OC(N)=O)[C@@H](OC)/C=C\C=C(/C)C(=O)NC(=CC1=O)C2=O [GELDANAMYCIN] |  | 
6 | 130 nM |  | 400 nM |  |  |  |  | C=CCNC1=C2C[C@@H](C)C[C@H](OC)[C@H](O)[C@@H](C)/C=C(\C)[C@H](OC(N)=O)[C@@H](OC)/C=C\C=C(/C)C(=O)NC(=CC1=O)C2=O (stereo in doubt) [TANESPIMYCIN] |  | IC50 [4]: 700 nM
